Experimental data: paper PMC9592910, “Tissue distribution and integrated pharmacokinetic properties of major effective constituents of oral Gegen-Qinlian decoction in mice” (Frontiers in Pharmacology, 2022)
Marks after values point to notes of the source that are not given here.

Experiments:
Format in all cases: in vivo, Kunming mice
[1] = Pharmacokinetics of GQD constituents in the portal vein of mice after oral GQD; conditions: for AUC(0-t): read-out: AUC0–24 h
Method: (§1) Fifty-four Kunming mice were randomly divided into nine groups according to body weight and gender (3 male and three female in each group). Each group was orally administered with water solution (0.2 ml/10 g body weight) of the GQD extract powder at the dosage of 6.1 g/kg body weight. The dosage of GQD extract powder equals to 18 g/kg herbal pieces of GQD, which is equivalent to its clinical dosage. At each designed time point (0.08, 0.25, 0.5, 1, 2, 4, 8, 12, and 24 h) after oral administration, six mice were anesthetized with ether, and blood was collected from the portal vein (about 0.2 ml, aspirated in a 1 ml heparinized syringe) and then the systemic circulation (about 0.2 ml, collected in heparinized tubes after removal of the eyeball) of the mice to prepare plasma samples, and the livers and the colons were removed to prepare respective homogenate. After pretreatment, the concentrations of 19 major constituents of GQD in each sample were measured by the validated LC-MS/MS method (see “2.3”). Then the C-T curves of the constituents in the plasma and the tissue homogenates were respectively drawn and their pharmacokinetic parameters were respectively calculated.
(§2) It should be noted that the pharmacokinetic parameters of a GQD constituent was calculated based on its average concentration in six mice at each time point. The results were expressed as mean ± SD.

[2] = Pharmacokinetics/tissue distribution of GQD constituents in the colons of mice after oral GQD
Method: (§3) The liver and the colon homogenates were prepared with 10 times (V: W) the volume of ascorbic acid solution (200 μg/ml). Then the homogenates were pretreated as plasma to obtain the tissue samples for LC-MS/MS analysis. Fifty-four Kunming mice were randomly divided into nine groups according to body weight and gender (3 male and three female in each group). […] Then the C-T curves of the constituents in the plasma and the tissue homogenates were respectively drawn and their pharmacokinetic parameters were respectively calculated. […] It should be noted that the pharmacokinetic parameters of a GQD constituent was calculated based on its average concentration in six mice at each time point. The results were expressed as mean ± SD.

[3] = Pharmacokinetics of GQD constituents in the systemic circulation of mice after oral GQD; conditions: mouse; for half-life / Tmax / Cmax / MRT / AUC(0-t): both, Kunming; for AUC(0-t): read-out: AUC0–24 h
Method: as §1, §2

[4] = Pharmacokinetics/tissue distribution of GQD constituents in the livers of mice after oral GQD
Method: as §3

[5] = both, Kunming, mouse, portal vein plasma, po, […], portal vein plasma, mice, oral GQD extract […], read-out: Tmax
[6] = both, Kunming, mouse, portal vein plasma, mice, oral GQD extract 6.1 g/kg
[7] = both, Kunming, mouse, portal vein plasma, mice, oral GQD extract 6.1 g/kg, read-out: T1/2 (converted)
[8] = both, Kunming, mouse, colon (homogenate), po, […], colon, mice, oral GQD extract […], read-out: T1/2 (converted)
[9] = both, Kunming, mouse, colon (homogenate), colon, mice, oral GQD extract 6.1 g/kg
[10] = both, Kunming, mouse, colon (homogenate), colon, mice, oral GQD extract 6.1 g/kg, read-out: Tmax
[11] = colon, mice, oral GQD extract […]
[12] = systemic circulation plasma, po, […], systemic circulation plasma, mice, oral GQD […], read-out: T1/2 (converted)
[13] = systemic circulation plasma, po, […], systemic circulation plasma, mice, oral GQD […], read-out: Tmax
[14] = systemic circulation plasma, mice, oral GQD 6.1 g/kg
[15] = both, Kunming, mouse, liver (homogenate), po, […], liver, mice, oral GQD extract […], read-out: T1/2 (converted)
[16] = both, Kunming, mouse, liver (homogenate), liver, mice, oral GQD extract 6.1 g/kg
[17] = both, Kunming, mouse, liver (homogenate), liver, mice, oral GQD extract 6.1 g/kg, read-out: Tmax
[18] = liver, mice, oral GQD extract […]
[19] = both, Kunming, mouse, in vivo, po, […]
[20] = both, Kunming, mouse, in vivo, po, […], Tmax
[21] = both, Kunming, mouse, in vivo, po, […], T1/2
[22] = both, Kunming, mouse, in vivo, portal vein plasma, mice, oral GQD extract 6.1 g/kg
[23] = both, Kunming, mouse, in vivo, colon, mice, oral GQD extract 6.1 g/kg
[24] = in vivo, systemic circulation plasma, mice, oral GQD 6.1 g/kg
[25] = both, Kunming, mouse, in vivo, liver, mice, oral GQD extract 6.1 g/kg
[26] = portal vein plasma, mice, oral GQD extract […]

## O=c1cc(-c2ccccc2)oc2cc(O)c(O)c(O)c12 [Baicalein, baicalein]
[1]; [5]
  Tmax: 2 h
[1]; [6]
  Cmax: 381 ng/mL
  MRT: 3.8 h
  AUC(0-t): 1760 ng·h/mL
[1]; [7]
  half-life: 1.3 h
[2]; [8]
  half-life: 2 to 3 h
[2]; [9]
  Cmax: 1920 ng/g
  MRT: 5.8 h
[2]; [10]
  Tmax: 4 h
[2]; [11]
  T1/2: 2.6 h
[3]; [12]
  half-life: 6.3 h
[3]; [13]
  Tmax: 4 h
[3]; [14]
  Cmax: 26.7 ng/mL
  MRT: 6.8 h
  AUC(0-t): 229 ng·h/mL
[4]; [15]
  half-life: 2 to 3 h
[4]; [16]
  Cmax: 9020 ng/g
  MRT: 4.3 h
[4]; [17]
  Tmax: 4 h
[4]; [18]
  T1/2: 2.3 h

## O=C(O)[C@H]1O[C@@H](Oc2cc3oc(-c4ccccc4)cc(=O)c3c(O)c2O)[C@H](O)[C@@H](O)[C@@H]1O [Baicalin, baicalin]
[1]; [5]
  Tmax: 4 h
[1]; [6]
  Cmax: 8150 ng/mL
  MRT: 4.5 h
  AUC(0-t): 46300 ng·h/mL
[1]; [7]
  half-life: 2 h
[2]; [8]
  half-life: 15 to 19 h
[2]; [9]
  Cmax: 3460 ng/g
  MRT: 9.9 h
[2]; [10]
  Tmax: 1 h
[2]; [11]
  T1/2: 18.6# h
[3]; [12]
  half-life: 3.1 h
[3]; [13]
  Tmax: 4 h
[3]; [14]
  Cmax: 1450 ng/mL
  MRT: 5.1 h
  AUC(0-t): 8670 ng·h/mL
[4]; [15]
  half-life: 1 to 2 h
[4]; [16]
  Cmax: 5710 ng/g
  MRT: 3.7 h
[4]; [17]
  Tmax: 2 h
[4]; [18]
  T1/2: 1.7 h

## COc1ccc2cc3[n+](cc2c1O)CCc1cc2c(cc1-3)OCO2 [Berberrubine, berberrubine]
[1]; [5]
  Tmax: 0.25 h
[1]; [6]
  Cmax: 10.3 ng/mL
  MRT: 4.4 h
  AUC(0-t): 67 ng·h/mL
[1]; [7]
  half-life: 5.1 h
[2]; [8]
  half-life: 14.3 h
[2]; [9]
  Cmax: 293 ng/g
  MRT: 10.1 h
[2]; [10]
  Tmax: 4 h
[4]; [15]
  half-life: 15 to 19 h
[4]; [16]
  Cmax: 186 ng/g
  MRT: 11 h
[4]; [17]
  Tmax: 4 h
[4]; [18]
  T1/2: 18.2# h

## c1c2c(cc3c1OCO3)-c1cc3ccc4c(c3c[n+]1CC2)OCO4 [Coptisine, coptisine]
[1]; [19]
  half-life: 4.7 h
[1]; [20]
  Tmax: 4 h
[2]; [19]
  Tmax: 4 h
[2]; [21]
  half-life: 4.3 h
[3]; in vivo, po, […], T1/2
  half-life: 10.8 h
[3]; in vivo, po, […], Tmax
  Tmax: 0.25 h
[4]; both sexes, Kunming, mouse, in vivo, po, AUC0–24 h liv/AUC0–24 h por
  Kp: 10.5
[4]; [19]
  Tmax: 2 h
[4]; [21]
  half-life: 3.7 h

## O=c1c(-c2ccc(O)cc2)coc2cc(O)ccc12 [Daidzein, daidzein]
[1]; [19]
  half-life: 2.6 h
[1]; [20]
  Tmax: 0.25 to 0.5 h
[2]; [19]
  Tmax: 1 h
[3]; in vivo, po, […], T1/2
  half-life: 1.5 h
[3]; in vivo, po, […], Tmax
  Tmax: 0.25 to 0.5 h
[4]; [19]
  T1/2: 3.6 h
  Tmax: 0.25 h
[4]; [21]
  half-life: 3 to 4 h

## O=c1c(-c2ccc(O)cc2)coc2cc(O[C@@H]3O[C@H](CO)[C@@H](O)[C@H](O)[C@H]3O)ccc12 [Daidzin, daidzin]
[1]; [22]
  Cmax: 76.9 ng/mL
  MRT: 2 h
  AUC(0-t): 151 ng·h/mL
[1]; both, Kunming, mouse, in vivo, portal vein plasma, mice, oral GQD extract 6.1 g/kg, read-out: T1/2 (converted)
  half-life: 1.8 h
[1]; both, Kunming, mouse, in vivo, portal vein plasma, mice, oral GQD extract 6.1 g/kg, read-out: Tmax
  Tmax: 0.25 h
[2]; [23]
  Cmax: 114 ng/g
  MRT: 9.9 h
[2]; both, Kunming, mouse, in vivo, colon, mice, oral GQD extract 6.1 g/kg, read-out: T1/2 (converted)
  half-life: 11 h
[2]; both, Kunming, mouse, in vivo, colon, mice, oral GQD extract 6.1 g/kg, read-out: Tmax
  Tmax: 1 h
[3]; [24]
  Cmax: 49 ng/mL
  MRT: 1.8 h
  AUC(0-t): 85.7 ng·h/mL
[3]; in vivo, systemic circulation plasma, mice, oral GQD 6.1 g/kg, read-out: T1/2 (converted)
  half-life: 1.8 h
[3]; in vivo, systemic circulation plasma, mice, oral GQD 6.1 g/kg, read-out: Tmax
  Tmax: 0.25 h
[4]; [25]
  Cmax: 54.1 ng/g
  MRT: 3.6 h
[4]; both, Kunming, mouse, in vivo, liver, mice, oral GQD extract 6.1 g/kg, read-out: T1/2 (converted)
  half-life: 3.4 h
[4]; both, Kunming, mouse, in vivo, liver, mice, oral GQD extract 6.1 g/kg, read-out: Tmax
  Tmax: 0.5 h

## COc1ccc2cc3[n+](cc2c1OC)CCc1cc(O)c(O)cc1-3 [Demethyleneberberine, demethyleneberberine]
[2]; mouse, in vivo, po, […]
  T1/2: 2.4 h
[4]; mouse, in vivo, po, […]
  T1/2: 11.1 h

## COc1cc2c(cc1OC)-c1cc3ccc4c(c3c[n+]1CC2)OCO4 [Epiberberine, epiberberine]
[1]; mouse, in vivo, po, […]
  T1/2: 5.6 h
[2]; mouse, in vivo, po, […]
  T1/2: 3.3 h
[4]; mouse, in vivo, po
  AUC0–24 h liv/AUC0–24 h cir: 9.9
  AUC0–24 h liv/AUC0–24 h por: 3.8

## CC1(C)[C@@H](O[C@H]2O[C@H](C(=O)O)[C@@H](O)[C@H](O)[C@H]2O[C@@H]2O[C@H](C(=O)O)[C@@H](O)[C@H](O)[C@H]2O)CC[C@]2(C)[C@H]3C(=O)C=C4[C@@H]5C[C@@](C)(C(=O)O)CC[C@]5(C)CC[C@@]4(C)[C@]3(C)CC[C@@H]12 [Glycyrrhizic acid, glycyrrhizic acid]
[1]; [5]
  Tmax: 2 h
[1]; [6]
  Cmax: 77.1 ng/mL
  MRT: 3.7 h
  AUC(0-t): 422 ng·h/mL
[1]; [7]
  half-life: 2.9 h
[2]; [8]
  half-life: 3 to 4 h
[2]; [9]
  Cmax: 2010 ng/g
  MRT: 4.8 h
[2]; [10]
  Tmax: 2 h
[2]; [11]
  T1/2: 3.3 h
[4]; [15]
  half-life: 3.8 h
[4]; [16]
  Cmax: 148 ng/g
  MRT: 2.8 h
[4]; [17]
  Tmax: 1 h

## O=C1C[C@@H](c2ccc(O)cc2)Oc2cc(O)ccc21 [Liquiritigenin, liquiritigenin]
[1]; [26]
  T1/2: 5.9 h
  Tmax: 2.0 h
[2]; [11]
  T1/2: 3.4 h
  Tmax: 4.0 h
[4]; [18]
  Tmax: 0.25 h

## COc1c(O[C@@H]2O[C@H](C(=O)O)[C@@H](O)[C@H](O)[C@H]2O)cc(O)c2c(=O)cc(-c3ccccc3)oc12 [Wogonoside, wogonoside]
[1]; mouse, in vivo, po, […]
  T1/2: 2.6 h
[3]; in vivo, po, […]
  T1/2: 3.9 h
[4]; mouse, in vivo, po
  AUC0–24 h liv/AUC0–24 h cir: 0.15
  AUC0–24 h liv/AUC0–24 h por: 0.03
[4]; mouse, in vivo, po, […]
  T1/2: 16.2 h
